Like-named read-outs stand apart in the source and are kept apart here.
What was measured:
LNCaP = test: Growth inhibition by MTT, LNCaP prostate cancer cells; type: cell-based, Human; settings: MTT, 72 h exposure (Table 3), read-out: IC50 LNCaP
Protocol: Growth inhibitory effects of NATURA and other agents on human cancer cells were determined by standard MTT (3-(4,5-dimethylthiazol-2-yl)-2,5-diphenyltetrazolium bromide Test) as described previously. […] The cells in the plates were then exposed to series of dilution of indicated agent. After 72 h of incubation, 100 μl of the medium was removed from each of the wells and 50 μl of a 1 mg/ml solution of 3-(4,5-dimethylthiazol-2-yl)-2,5-diphenyltetrazolium bromide (MTT) was added to each well and the cells were incubated for additional 4 h. 200 μl of solution of 0.04 N HCl-isopropanol was added to each well to dissolve the black fromazan participates, and absorbance at 540 nm was measured on a 96-Well.
(§1) The cells in the plates were then exposed to series of dilution of indicated agent. After 72 h of incubation, 100 μl of the medium was removed from each of the wells and 50 μl of a 1 mg/ml solution of 3-(4,5-dimethylthiazol-2-yl)-2,5-diphenyltetrazolium bromide (MTT) was added to each well and the cells were incubated for additional 4 h. 200 μl of solution of 0.04 N HCl-isopropanol was added to each well to dissolve the black fromazan participates, and absorbance at 540 nm was measured on a 96-Well Microplate Reader. Each experiment was repeated at least three times.

PC-3 = test: Growth inhibition by MTT, PC-3 prostate cancer cells; type: cell-based, Human; settings: read-out: IC50 PC-3
Protocol: (§2) Growth inhibitory effects of NATURA and other agents on human cancer cells were determined by standard MTT (3-(4,5-dimethylthiazol-2-yl)-2,5-diphenyltetrazolium bromide Test) as described previously. Briefly, cancer cells grown exponentially were aliquoted into 96-well plates at a density of 5000 cells/200 μl per well in RPMI 1640 medium containing 10% FBS overnight. The cells in the plates were then exposed to series of dilution of indicated agent. After 72 h of incubation, 100 μl of the medium was removed from each of the wells and 50 μl of a 1 mg/ml solution of 3-(4,5-dimethylthiazol-2-yl)-2,5-diphenyltetrazolium bromide (MTT) was added to each well and the cells were incubated for additional 4 h. 200 μl of solution of 0.04 N HCl-isopropanol was added to each well to dissolve the black fromazan participates, and absorbance at 540 nm was measured on a 96-Well.

DU145 = test: Growth inhibition by MTT, DU145 prostate cancer cells; type: cell-based, Human; settings: read-out: IC50 DU145
Protocol: as §2

DLD-1 = test: Growth inhibition by MTT, DLD-1 colon cancer cells; type: cell-based, Human
Protocol: as §2
as §1, with “FIGS. 3-5 show the anticancer affects of NATURA in MCF-7 breast cancer cells, DLD-1 colon cancer cells, and LNCaP hormone-dependent prostate cancer cells. The cancer cells grown exponentially were aliquoted into 96-well plates at a density of 5000 cells/200 μl per well in RPMI 1640 medium containing 10% fetal bovine serum (FBS) overnight. The” for “The”

SKBR-3 = test: Growth inhibition by MTT, SKBR-3 breast cancer cells; type: cell-based, Human; settings: read-out: IC50 SKBR-3
Protocol: as §2

human cancer cell lines = test: Growth inhibition by MTT, all tested human cancer cell lines; type: cell-based; settings: range over breast, colon, prostate lines, three day exposure, read-out: IC50, growth inhibitory effects on all tested human cancer cell lines
Protocol: as §2

LOVO = test: Growth inhibition by MTT, LOVO colon cancer cells; type: cell-based, Human; settings: read-out: IC50 LOVO
Protocol: as §2

MCF-7 = test: Growth inhibition by MTT, MCF-7 breast cancer cells; type: cell-based, Human
Protocol: as §2
as §1, with “FIGS. 3-5 show the anticancer affects of NATURA in MCF-7 breast cancer cells, DLD-1 colon cancer cells, and LNCaP hormone-dependent prostate cancer cells. The cancer cells grown exponentially were aliquoted into 96-well plates at a density of 5000 cells/200 μl per well in RPMI 1640 medium containing 10% fetal bovine serum (FBS) overnight. The” for “The”

[1] = test system: extracellular signal-regulated protein kinase 2 (ERK2); test: ERK2 activity from treated LNCaP cells; type: cell-based, Human; settings: different concentrations, 15 min
Protocol: Assay for cyclin dependent kinase activity: HUVEC and LNCaP cells were cultured in EMB (endothelial cell basal medium) and RPMI 1640 containing 10% FBS, respectively. The cells grown exponentially were exposed to indicated concentrations of meisoindigo or NATURA for 24 hr. The cells were harvested, washed, and total proteins extracted as described previously. One hundred μg of the proteins were immuno-precipitated using antibodies against cdk2, cdk4/6, PKC, ERK2 or cyclin D1 overnight at 4° C. in the presence of a cocktail of protease inhibitors. […] The phosphorylated histone H1 (represent cdk activity) was measured by scintillation counting or by SDS-polyacrylaimde gel electrophoresis. The direct inhibitory effects of Meisoindigo and NATURA were also measured by reaction of immuno-purified specific enzyme from untreated cells directly with the Meisoindigo or NATURA. […]
LNCaP cells at exponential growth phase were exposed to different concentrations of NATURA (panel A & B) for 24 hrs, or to PD98059 (panel C) for 15 min. […] Upper panels are the imagines of x-ray films from SDS-PAGE, and lower panels represent the densities of each band from the films determined by an Imagine Densitometer from the same films (expressed as the percent of control).

Walker 256 = test: Anticancer activity against Walker 256 sarcoma; settings: Walker 256, rat, oral; Indirubin 100 × 9, Meisoindigo 106 × 9 mg/kgxd
Protocol: Anticancer activity against Walker 256: Wistar rats with body weights between 50 to 55 grams, were randomly divided into several groups, ten of each, respectively. Approximately 2×10^6 of the Walker sarcoma cells were transplanted into a Wistar rat. Twenty-four hours after the transplantation, equal molar dosage (0.384 mM/kg) of NATURA or other sugar derivatives were given orally for 10 days. The animals in the control group were given 0.1 ml saline (drug vehicle, negative control) for the same periods of time as treated group. Twenty-four hours after the last administration, the animals were sacrificed and tumors were removed and weighed.
(§3) Briefly, C57 mice, body weight between 18 to 22 grams, and rat, body weight between 50 to 55 grams, were randomly divided into several groups, ten of each, respectively. Approximately 2×10^6 of Lewis cancer cells or Walker sarcoma cells were transplanted into mice or rat. […] The animals in the control group were given 0.1 ml saline (drug vehicle, negative control) for the same periods of time as treated group. The animals at end of the treatment were sacrificed and tumors were removed and weighed.
In order to assess the anticancer activities of NATURA and other sugar derivatives, Wistard rats transplanted with W256 were given the same molar of the tested compounds (0.384 mM/kg) for the same period of time (10 days).

Lewis Lung Cancer = test: Anticancer activity in Lewis lung carcinoma animal model; type: in vivo, C57 mice; settings: mice, oral, Indirubin 100 × 9, Meisoindigo 106 × 9 mg/kgxd
Protocol: as §3

[2] = molecular target: T1, immuno-purified cdk2 from LNCaP cells (Homo sapiens, UniProt P24941); test: Direct inhibition of immuno-purified cdk2 activity in vitro; type: biochemical; settings: 50 μM, immuno-purified cdk2, positive control
T1 construct: Two hundred mg of total protein extracts were immuno-precipitated with cdk2 antibody overnight at 4° C
Protocol: Assay for cyclin dependent kinase activity: HUVEC and LNCaP cells were cultured in EMB (endothelial cell basal medium) and RPMI 1640 containing 10% FBS, respectively. The cells grown exponentially were exposed to indicated concentrations of meisoindigo or NATURA for 24 hr. The cells were harvested, washed, and total proteins extracted as described previously. One hundred μg of the proteins were immuno-precipitated using antibodies against cdk2, cdk4/6, PKC, ERK2 or cyclin D1 overnight at 4° C. in the presence of a cocktail of protease inhibitors. The immuno-precipitates were washed 4 times with protein extraction buffer and once with kinase assay buffer, and reacted with 75 μg/ml histone H1 in the presence of [γ-^32P]-ATP (2.5 μCi/10 μM). The phosphorylated histone H1 (represent cdk activity) was measured by scintillation counting or by SDS-polyacrylaimde gel electrophoresis. The direct inhibitory effects of Meisoindigo and NATURA were also measured by reaction of immuno-purified specific enzyme from untreated cells directly with the Meisoindigo or NATURA.
When immuno-purified cdk2 from LNCaP cells was reacted with histone H1 in the presence of different concentrations of NATURA-β and γ-[^32P]-ATP (2.5 μCi/[…]), the enzyme activity was decreased in a concentration-dependent manner.
Two hundred mg of total protein extracts were immuno-precipitated with cdk2 antibody overnight at 4° C. After 4 washes with PBSTDS, and once with kinase assay buffer, the immuno-purified enzyme was then reacted for 10 min with 10 mg of histone H1 in the presence of different concentrations of NATURA or 50 mM of genistein (as a positive control) and γ-[^32P]-ATP (2.5 mCi/10 mM). The phosphorylated histone H1 (reflecting cdk2 activity) was detected either by SDS-PAGE (upper panel), or radioactive scintillation counting (lower panel, after eliminating free γ-[^32P]-ATP).

[3] = test system: polychromatic erythrocytes from bone marrow; test: Induction of micronuclei in rodent animals; type: in vivo; settings: mice, 48 mg/kg intraperitoneally daily for 2 days, positive control
Protocol: Cyclophosphamine at dosage of 48 mg/kg was given intraperitoneally daily for 2 days as positive control. Six hrs after the latest administration, the animals were sacrificed, and polychromatic erythrocytes from bone marrow were stained with Giemsa to count micronuclei.

[4] = Homo sapiens, PC-3, MTT, 72 h exposure
[5] = Homo sapiens, DLD-1, 72 h exposure

CC(C)(C)NC(=O)[C@H]1CC[C@H]2[C@@H]3CC[C@H]4NC(=O)C=C[C@]4(C)[C@H]3CC[C@]12C [Proscar]
IC50 (LNCaP; Homo sapiens, LNCaP): 40.6 ± 7.12 µM
IC50 (PC-3; [4]): 134 ± 12.9 µM

CC1=C(/C=C/C(C)=C/C=C/C(C)=C/C(=O)O)C(C)(C)CCC1 [Retinoid Acid]
IC50 (LNCaP): 16 ± 3.19 µM
IC50 (DU145; MTT, 72 h exposure): > 50 µM
IC50 (PC-3; MTT, 72 h exposure): > 50 µM
IC50 (DLD-1; 72 h exposure): 49.7 ± 5.72 µM
IC50 (SKBR-3; MTT, 72 h exposure): > 50 µM
IC50 (human cancer cell lines): ≥ 21.4 µM
IC50 (LOVO; MTT, 72 h exposure): 75.3 ± 12.5 µM
IC50 (MCF-7; 72 h exposure): 21.4 ± 3.78 µM

CC(O)(CS(=O)(=O)c1ccc(F)cc1)C(=O)Nc1ccc(C#N)c(C(F)(F)F)c1 (centres unmarked) [Casodex]
IC50 (LNCaP; Homo sapiens, LNCaP): 57.4 ± 7.21 µM
IC50 (PC-3; [4]): 120 ± 17.3 µM

CS(=O)(=O)Nc1ccc([N+](=O)[O-])cc1OC1CCCCC1 [NS389]
IC50 (LNCaP): 65.5 ± 9.46 µM
IC50 (DU145; MTT, 72 h exposure): > 200 µM
IC50 (PC-3; MTT, 72 h exposure): > 200 µM
IC50 (DLD-1; 72 h exposure): > 200 µM
IC50 (SKBR-3; MTT, 72 h exposure): > 200 µM
IC50 (human cancer cell lines): > 200 µM
IC50 (LOVO; MTT, 72 h exposure): > 200 µM
IC50 (MCF-7; 72 h exposure): > 200 µM

COc1cccc(-c2cc(=O)c3ccccc3o2)c1N [PD98059]
effect on ERK2 [1]: concentration-dependent inhibitory effects

O=C1Nc2ccccc2/C1=C1/Nc2ccccc2C1=O [Indirubin]
Inhibition (%) (Walker 256): 59.4 ± 2.9%
Tumor Size X ± SD (Walker 256): 3.94 ± 0.71
Inhibition (%) (Lewis Lung Cancer): 26.3 ± 2.8%
Tumor Size X ± SD (Lewis Lung Cancer): 2.58 ± 0.21

CC(=O)O[C@H]1C(=O)[C@@]2(C)[C@H]([C@H](OC(=O)c3ccccc3)[C@]3(O)C[C@H](OC(=O)[C@H](O)[C@@H](NC(=O)c4ccccc4)c4ccccc4)C(C)=C1C3(C)C)[C@]1(OC(C)=O)CO[C@@H]1C[C@@H]2O [Paclitaxel]
IC50 (DLD-1; [5]): 0.00315 ± 0.00037 µM
IC50 (LOVO; Homo sapiens, LoVo, MTT, 72 h exposure): 0.00364 ± 0.00051 µM

O=c1c(-c2ccc(O)cc2)coc2cc(O)cc(O)c12 [genistein]
inhibition at 50 µM [2]: ~56%

O=P1(N(CCCl)CCCl)NCCCO1 (centres unmarked) [Cyclophosphamine]
micronuclei [3]: 41.16 per thousand

COc1cccc2c1C(=O)c1c(O)c3c(c(O)c1C2=O)C[C@@](O)(C(C)=O)C[C@@H]3O[C@H]1C[C@H](N)[C@H](O)[C@H](C)O1 [Daunomycin]
IC50 (DU145; Homo sapiens, DU-145, 72 h): 0.107 ± 0.004 µM
IC50 (PC-3; Homo sapiens, PC-3, 72 h): 0.24 ± 0.018 µM
IC50 (DLD-1; [5]): 0.094 ± 0.013 µM
IC50 (SKBR-3; Homo sapiens, SK-BR-3, 72 h): 0.061 ± 0.0051 µM
IC50 (LOVO; Homo sapiens, LoVo, 72 h): 0.035 ± 0.004 µM
IC50 (MCF-7; Homo sapiens, MCF7, 72 h exposure): 0.054 ± 0.011 µM
